Columns and labels:
speedwell = experiment: Test D postemergence; format: in vivo, Veronica persica; conditions: Veronica persica, post-emergence
Outline: (§1)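 Seeds sown in silt loam soil got preemergence sprays; plants in peat/vermiculite potting medium were sprayed postemergence at 2–18 cm (1- to 4-leaf stage). Chemicals were formulated in a non-phytotoxic solvent mixture with surfactant. After 7 to 21 days in a controlled environment, injury was rated visually versus controls, 0 (no effect) to 100 (complete control).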

spring wheat = experiment: Test D postemergence; format: in vivo, Triticum aestivum; conditions: Triticum aestivum, post-emergence
Outline: as §1

winter wheat = experiment: Test D postemergence; format: in vivo, Triticum aestivum; conditions: Triticum aestivum, post-emergence
Outline: as §1

windgrass = experiment: Test D preemergence; format: in vivo, Apera spica-venti; conditions: Apera spica-venti, pre-emergence
Outline: as §1

kochia = experiment: Test D postemergence; format: in vivo, Kochia scoparia; conditions: Bassia scoparia, post-emergence
Outline: as §1

canarygrass = experiment: Test D preemergence; format: in vivo, Phalaris minor; conditions: Phalaris minor, pre-emergence
Outline: as §1

bromegrass, downy = experiment: Test D preemergence; format: in vivo, Bromus tectorum; conditions: Bromus tectorum, pre-emergence
Outline: as §1

galium = experiment: Test D preemergence; format: in vivo, Galium aparine; conditions: Galium, pre-emergence
Outline: as §1

wild mustard = experiment: Test D preemergence; format: in vivo, Sinapis arvensis; conditions: Brassica, pre-emergence
Outline: as §1

lambsquarters = experiment: Test D preemergence; format: in vivo, Chenopodium album; conditions: Chenopodium album, pre-emergence
Outline: as §1

FC(F)(F)c1cnn(-c2ccccc2Oc2ncc(Br)cn2)c1 [Compound 18, 5-bromo-2-[2-[4-(trifluoromethyl)-1H-pyrazol-1-yl]phenoxy]pyrimidine]
5%: plant injury at 16 g/ha (winter wheat; 16 g ai/ha, scale 0-100, read-out: Plant response rating, Wheat, Winter) | plant injury at 31 g/ha (winter wheat; 31 g ai/ha, scale 0 to 100 (0 no effect, 100 complete control), read-out: Plant response rating, Wheat, Winter) | pest or weed control at 16 g/ha (windgrass; 16 g ai/ha, scale 0 (no effect) to 100 (complete control), read-out: Plant response rating, Windgrass) | pest or weed control at 62 g/ha (bromegrass, downy; 62 g ai/ha, scale 0-100, read-out: Plant response rating, Bromegrass, Downy)
10%: plant injury at 16 g/ha (spring wheat; 16 g ai/ha, scale 0-100, read-out: Plant response rating, Wheat, Spring) | plant injury at 31 g/ha (spring wheat; 31 g ai/ha, scale 0 to 100 (0 no effect, 100 complete control), read-out: Plant response rating, Wheat, Spring) | plant injury at 62 g/ha (winter wheat; 62 g ai/ha, scale 0 to 100 (0 no effect, 100 complete control), read-out: Plant response rating, Wheat, Winter) | pest or weed control at 16 g/ha (canarygrass; 16 g ai/ha, scale 0 (no effect) to 100 (complete control), read-out: Plant response rating, Canarygrass) | pest or weed control at 125 g/ha (bromegrass, downy; 125 g ai/ha, scale 0-100, read-out: Plant response rating, Bromegrass, Downy)
15%: plant injury at 62 g/ha (spring wheat; 62 g ai/ha, scale 0 to 100 (0 no effect, 100 complete control), read-out: Plant response rating, Wheat, Spring) | plant injury at 125 g/ha (winter wheat; 125 g ai/ha, scale 0 to 100 (0 no effect, 100 complete control), read-out: Plant response rating, Wheat, Winter) | pest or weed control at 31 g/ha (galium; 31 g ai/ha, scale 0-100, read-out: Plant response rating, Galium)
75%: pest or weed control at 62 g/ha (windgrass; 62 g ai/ha, scale 0-100, read-out: Plant response rating, Windgrass)
20%: plant injury at 125 g/ha (spring wheat; 125 g ai/ha, scale 0 to 100 (0 no effect, 100 complete control), read-out: Plant response rating, Wheat, Spring) | plant injury at 250 g/ha (winter wheat; 250 g ai/ha, scale 0 to 100 (0 no effect, 100 complete control), read-out: Plant response rating, Wheat, Winter) | pest or weed control at 31 g/ha (windgrass; 31 g ai/ha, scale 0 (no effect) to 100 (complete control), read-out: Plant response rating, Windgrass)
25%: plant injury at 250 g/ha (spring wheat; 250 g ai/ha, scale 0 to 100 (0 no effect, 100 complete control), read-out: Plant response rating, Wheat, Spring) | pest or weed control at 31 g/ha (canarygrass; 31 g ai/ha, scale 0-100, read-out: Plant response rating, Canarygrass)
50%: pest or weed control at 250 g/ha (bromegrass, downy; 250 g ai/ha, scale 0-100, read-out: Plant response rating, Bromegrass, Downy)
65%: pest or weed control at 62 g/ha (canarygrass; 62 g ai/ha, scale 0-100, read-out: Plant response rating, Canarygrass)
0%: pest or weed control at 16 g/ha (bromegrass, downy; 16 g ai/ha, scale 0 (no effect) to 100 (complete control), read-out: Plant response rating, Bromegrass, Downy) | pest or weed control at 31 g/ha (bromegrass, downy; 31 g ai/ha, scale 0-100, read-out: Plant response rating, Bromegrass, Downy) | pest or weed control at 16 g/ha (galium; 16 g ai/ha, scale 0 (no effect) to 100 (complete control), read-out: Plant response rating, Galium)
85%: pest or weed control at 31 g/ha (kochia; 31 g ai/ha, scale 0 to 100 (0 no effect, 100 complete control), read-out: Plant response rating, Kochia) | pest or weed control at 31 g/ha (wild mustard; 31 g ai/ha, scale 0-100, read-out: Plant response rating, Mustard, Wild)
70%: pest or weed control at 16 g/ha (lambsquarters; 16 g ai/ha, scale 0 (no effect) to 100 (complete control), read-out: Plant response rating, Lambsquarters)
100%: pest or weed control at 16 g/ha (speedwell; 16 g ai/ha, scale 0-100, read-out: Plant response rating, Speedwell) | pest or weed control at 31 g/ha (speedwell; 31 g ai/ha, scale 0 to 100 (0 no effect, 100 complete control), read-out: Plant response rating, Speedwell) | pest or weed control at 62 g/ha (speedwell; 62 g ai/ha, scale 0 to 100 (0 no effect, 100 complete control), read-out: Plant response rating, Speedwell) | pest or weed control at 125 g/ha (speedwell; 125 g ai/ha, scale 0 to 100 (0 no effect, 100 complete control), read-out: Plant response rating, Speedwell) | pest or weed control at 250 g/ha (speedwell; 250 g ai/ha, scale 0 to 100 (0 no effect, 100 complete control), read-out: Plant response rating, Speedwell) | pest or weed control at 125 g/ha (windgrass; 125 g ai/ha, scale 0-100, read-out: Plant response rating, Windgrass) | pest or weed control at 250 g/ha (windgrass; 250 g ai/ha, scale 0-100, read-out: Plant response rating, Windgrass) | pest or weed control at 125 g/ha (kochia; 125 g ai/ha, scale 0 to 100 (0 no effect, 100 complete control), read-out: Plant response rating, Kochia) | pest or weed control at 250 g/ha (kochia; 250 g ai/ha, scale 0 to 100 (0 no effect, 100 complete control), read-out: Plant response rating, Kochia) | pest or weed control at 125 g/ha (canarygrass; 125 g ai/ha, scale 0-100, read-out: Plant response rating, Canarygrass) | pest or weed control at 250 g/ha (canarygrass; 250 g ai/ha, scale 0-100, read-out: Plant response rating, Canarygrass) | pest or weed control at 125 g/ha (galium; 125 g ai/ha, scale 0-100, read-out: Plant response rating, Galium) | pest or weed control at 250 g/ha (galium; 250 g ai/ha, scale 0-100, read-out: Plant response rating, Galium) | pest or weed control at 62 g/ha (wild mustard; 62 g ai/ha, scale 0-100, read-out: Plant response rating, Mustard, Wild) | pest or weed control at 250 g/ha (wild mustard; 250 g ai/ha, scale 0-100, read-out: Plant response rating, Mustard, Wild) | pest or weed control at 62 g/ha (lambsquarters; 62 g ai/ha, scale 0-100, read-out: Plant response rating, Lambsquarters) | pest or weed control at 125 g/ha (lambsquarters; 125 g ai/ha, scale 0-100, read-out: Plant response rating, Lambsquarters) | pest or weed control at 250 g/ha (lambsquarters; 250 g ai/ha, scale 0-100, read-out: Plant response rating, Lambsquarters)
80%: pest or weed control at 62 g/ha (galium; 62 g ai/ha, scale 0-100, read-out: Plant response rating, Galium) | pest or weed control at 16 g/ha (wild mustard; 16 g ai/ha, scale 0 (no effect) to 100 (complete control), read-out: Plant response rating, Mustard, Wild) | pest or weed control at 31 g/ha (lambsquarters; 31 g ai/ha, scale 0-100, read-out: Plant response rating, Lambsquarters)
35%: pest or weed control at 16 g/ha (kochia; 16 g ai/ha, scale 0-100, read-out: Plant response rating, Kochia)
90%: pest or weed control at 62 g/ha (kochia; 62 g ai/ha, scale 0 to 100 (0 no effect, 100 complete control), read-out: Plant response rating, Kochia) | pest or weed control at 125 g/ha (wild mustard; 125 g ai/ha, scale 0-100, read-out: Plant response rating, Mustard, Wild)

Reference: patent US9695155B2, “Herbicidal substituted pyrimidinyloxy benzene compounds” (E. I. DU PONT DE NEMOURS AND COMPANY, priority 2013, dated 2017)
